Laboratory results: US11883526B2 (priority 2019, dated 2024)
Like-named read-outs stand apart in the source and are kept apart here.

Test system: subjects with MDD at imminent risk for suicide
Conditions: 84 mg
[1] = TEAE, double-blind phase, N = 35
[2] = adverse event, follow up phase, N = 27
[3] = overall summary, double-blind phase, N = 35
[4] = serious TEAE, double-blind phase, N = 35
[5] = serious adverse event, follow up phase, N = 27

## CN[C@]1(c2ccccc2Cl)CCCCC1=O [esketamine, (S)-2-(2-chlorophenyl)-2-(methylamino)cyclohexanone]
[1]
  Vertigo: no. of subjects: 4
  Vision blurred: % of subjects: (8.6%)
  Vision blurred: no. of subjects: 3
  Vomiting: % of subjects: (20.0%)
  Vomiting: no. of subjects: 7
  Weight increased: % of subjects: (5.7%)
  Weight increased: no. of subjects: 2
[2]
  Abdominal pain: % of subjects: (3.7%)
  Abdominal pain: no. of subjects: 1
  Abdominal tenderness: % of subjects: (3.7%)
  Abdominal tenderness: no. of subjects: 1
  Aphthous ulcer: no. of subjects: 0
  Back pain: % of subjects: (3.7%)
  Back pain: no. of subjects: 1
  Bronchitis: no. of subjects: 0
  Cellulitis: no. of subjects: 0
  Cogwheel rigidity: % of subjects: (3.7%)
  Cogwheel rigidity: no. of subjects: 1
  Contusion: % of subjects: (3.7%)
  Contusion: no. of subjects: 1
  Depressed mood: no. of subjects: 0
  Depression: % of subjects: (3.7%)
  Depression: no. of subjects: 1
  Diarrhea: % of subjects: (3.7%)
  Diarrhea: no. of subjects: 1
  Dizziness: % of subjects: (3.7%)
  Dizziness: no. of subjects: 1
  Drug hypersensitivity: no. of subjects: 0
  Dry mouth: % of subjects: (7.4%)
  Dry mouth: no. of subjects: 2
  Dysgeusia: % of subjects: (3.7%)
  Dysgeusia: no. of subjects: 1
  Ear and labyrinth disorders: no. of subjects: 0
  Ear infection: % of subjects: (3.7%)
  Ear infection: no. of subjects: 1
  Epistaxis: % of subjects: (3.7%)
  Epistaxis: no. of subjects: 1
  Flank pain: % of subjects: (3.7%)
  Flank pain: no. of subjects: 1
  Folliculitis: no. of subjects: 0
  Gastrointestinal disorders: % of subjects: (22.2%)
  Gastrointestinal disorders: no. of subjects: 6
  Headache: % of subjects: (7.4%)
  Headache: no. of subjects: 2
  Immune system disorders: no. of subjects: 0
  Infections and infestations: % of subjects: (11.1%)
  Infections and infestations: no. of subjects: 3
  Influenza: no. of subjects: 0
  Injury, poisoning and procedural complications: % of subjects: (7.4%)
  Injury, poisoning and procedural complications: no. of subjects: 2
  Insomnia: % of subjects: (11.1%)
  Insomnia: no. of subjects: 3
  Intentional self-injury: % of subjects: (3.7%)
  Intentional self-injury: no. of subjects: 1
  Loss of consciousness: % of subjects: (3.7%)
  Loss of consciousness: no. of subjects: 1
  Meniere's disease: no. of subjects: 0
  Metabolism and nutrition disorders: no. of subjects: 0
  Migraine: % of subjects: (3.7%)
  Migraine: no. of subjects: 1
  Musculoskeletal and connective tissue disorders: % of subjects: (7.4%)
  Musculoskeletal and connective tissue disorders: no. of subjects: 2
  Musculoskeletal chest pain: % of subjects: (3.7%)
  Musculoskeletal chest pain: no. of subjects: 1
  Musculoskeletal pain: % of subjects: (3.7%)
  Musculoskeletal pain: no. of subjects: 1
  Nasal congestion: % of subjects: (3.7%)
  Nasal congestion: no. of subjects: 1
  Nasopharyngitis: % of subjects: (3.7%)
  Nasopharyngitis: no. of subjects: 1
  Nausea: no. of subjects: 0
  Neck pain: % of subjects: (3.7%)
  Neck pain: no. of subjects: 1
  Nervous system disorders: % of subjects: (22.2%)
  Nervous system disorders: no. of subjects: 6
  Night sweats: % of subjects: (3.7%)
  Night sweats: no. of subjects: 1
  Panic reaction: no. of subjects: 0
  Pelvic pain: % of subjects: (3.7%)
  Pelvic pain: no. of subjects: 1
  Pharyngitis: % of subjects: (7.4%)
  Pharyngitis: no. of subjects: 2
  Polydipsia: no. of subjects: 0
  Procedural pain: no. of subjects: 0
  Psychiatric disorders: % of subjects: (18.5%)
  Psychiatric disorders: no. of subjects: 5
  Rash: no. of subjects: 0
  Renal and urinary disorders: no. of subjects: 0
  Renal failure: no. of subjects: 0
  Reproductive system and breast disorders: % of subjects: (3.7%)
  Reproductive system and breast disorders: no. of subjects: 1
  Respiratory, thoracic and mediastinal disorders: % of subjects: (7.4%)
  Respiratory, thoracic and mediastinal disorders: no. of subjects: 2
  Restlessness: % of subjects: (3.7%)
  Restlessness: no. of subjects: 1
  Road traffic accident: % of subjects: (3.7%)
  Road traffic accident: no. of subjects: 1
  Sedation: % of subjects: (3.7%)
  Sedation: no. of subjects: 1
  Self-injurious ideation: no. of subjects: 0
  Sexual dysfunction: no. of subjects: 0
  Skin and subcutaneous tissue disorders: % of subjects: (3.7%)
  Skin and subcutaneous tissue disorders: no. of subjects: 1
  Somnolence: no. of subjects: 0
  Suicidal ideation: % of subjects: (3.7%)
  Suicidal ideation: no. of subjects: 1
  Suicide attempt: no. of subjects: 0
  Tooth impacted: no. of subjects: 0
  Toothache: no. of subjects: 0
  Total no. subjects with adverse events: % of subjects: (48.1%)
  Total no. subjects with adverse events: no. of subjects: 13
  Tremor: % of subjects: (7.4%)
  Tremor: no. of subjects: 2
  Upper respiratory tract infection: % of subjects: (3.7%)
  Upper respiratory tract infection: no. of subjects: 1
  Viral upper respiratory tract infection: no. of subjects: 0
  Vomiting: % of subjects: (3.7%)
  Vomiting: no. of subjects: 1
  Vulvovaginal mycotic infection: % of subjects: (3.7%)
  Vulvovaginal mycotic infection: no. of subjects: 1
[3]
  1 or more serious TEAE: % of subjects: 11.4%
  1 or more serious TEAE: no. of subjects: 4
  Possibly related TEAE: % of subjects: 82.9%
  Possibly related TEAE: no. of subjects: 29
  TEAE leading to death: no. of subjects: 0
  TEAE leading to drug withdrawn: % of subjects: 14.3%
  TEAE leading to drug withdrawn: no. of subjects: 5
  TEAE: % of subjects: 94.3%
  TEAE: no. of subjects: 33
[4]
  Agitation: % of subjects: 2.9%
  Agitation: no. of subjects: 1
  Depressive symptom: % of subjects: 2.9%
  Depressive symptom: no. of subjects: 1
  Psychiatric disorders: % of subjects: 11.4%
  Psychiatric disorders: no. of subjects: 4
  Suicidal ideation: % of subjects: 5.7%
  Suicidal ideation: no. of subjects: 2
  Total no. subjects with a serious TEAE: % of subjects: 11.4%
  Total no. subjects with a serious TEAE: no. of subjects: 4
[5]
  Cellulitis: no. of subjects: 0
  Infections and infestations: no. of subjects: 0
  Psychiatric disorders: % of subjects: 3.7%
  Psychiatric disorders: no. of subjects: 1
  Suicidal ideation: % of subjects: 3.7%
  Suicidal ideation: no. of subjects: 1
  Suicide attempt: no. of subjects: 0
  Total no. subjects with a serious adverse event: % of subjects: 3.7%
  Total no. subjects with a serious adverse event: no. of subjects: 1
